Assay results taken from ChEMBL document CHEMBL5608235, “Tricyclic Benzo[1,3]oxazinyloxazolidinones as Potent Antibacterial Agents against Drug-Resistant Pathogens” (J Med Chem, 2024).
In brackets after ≈: the same amount, converted by molar mass. Activity calls are given as the source filed them. The calls are words filed in the database; no cut-off is given here.

Key:
[1] = system: Staphylococcus aureus; test: (§1) Antibacterial activity against methicillin resistant Staphylococcus aureus ATCC 33592 infected in cyclophosphamide-induced immunosuppressed Kunming mouse assessed as reduction in congestion in spleen at 50 mg/kg,po administration measured after 24 hrs by hematoxylin and eosin staining based microscopy; type: functional, organism-based
[2] = system: Staphylococcus aureus; test: as §1, with “histopathological change” for “congestion”, “heart” for “spleen”; type: functional, organism-based
[3] = system: Staphylococcus aureus; test: Inhibition of biofilm formation in methicillin resistant Staphylococcus aureus ATCC 33592 at 0.1 to 10 ug/ml incubated for 48 hrs by crystal violet staining based assay; type: functional, organism-based; conditions: dose 0.1-10 µg/ml
[4] = Cytotoxicity against African green monkey Vero cells incubated for 48 hrs by MTT assay; type: toxicity, cell-based, Chlorocebus sabaeus
[5] = system: Staphylococcus aureus; test: Antibacterial activity against methicillin resistant Staphylococcus aureus ATCC 33592 infected in cyclophosphamide-induced immunosuppressed Kunming mouse assessed as increase in body weight at 50 mg/kg,po administration measured for 7 days; type: functional, organism-based; conditions: time 7.0 day
[6] = system: Staphylococcus aureus; test: as §1, with “histopathological change” for “congestion”; type: functional, organism-based
[7] = system: Staphylococcus aureus; test: as §1, with “inflammatory cell infiltration” for “congestion”, “kidney” for “spleen”; type: functional, organism-based
[8] = system: Staphylococcus epidermidis; test: Antibacterial activity against Staphylococcus epidermidis ATCC12228 assessed as inhibition of bacterial growth incubated for 18 hrs by microdilution broth assay; type: functional
[9] = system: Staphylococcus aureus; test: Antibacterial activity against methicillin resistant Staphylococcus aureus clinical isolate 20-2 assessed as inhibition of bacterial growth incubated for 7 days by alamar blue assay; type: functional; conditions: clinical isolate 20-2, 168 h, time 7 day
[10] = system: Staphylococcus aureus; test: as §1, with “inflammatory cell infiltration” for “congestion”, “liver” for “spleen”; type: functional, organism-based
[11] = system: Staphylococcus aureus; test: Antibacterial activity against Linezolid resistant Staphylococcus aureus assessed as inhibition of bacterial growth incubated for 7 days by alamar blue assay; type: functional; conditions: 168 h, time 7 day
[12] = system: Staphylococcus aureus; test: Antibacterial activity against Linezolid resistant Staphylococcus aureus clinical isolate 20-2 assessed as inhibition of bacterial growth incubated for 7 days by alamar blue assay; type: functional; conditions: clinical isolate 20-2, 168 h, time 7 day
[13] = system: Staphylococcus aureus; test: Antibacterial activity against vancomycin intermediate Staphylococcus aureus ATCC700699 assessed as inhibition of bacterial growth incubated for 7 days by alamar blue assay; type: functional; conditions: ATCC700699, 168 h, time 7 day
[14] = system: Staphylococcus aureus; test: Inhibition of protein synthesis in Staphylococcus aureus ATCC 29213 by translation assay; type: functional, organism-based
[15] = system: Staphylococcus aureus; test: Inhibition of biofilm formation in Staphylococcus aureus ATCC 29213 at 10 ug/ml incubated for 48 hrs by crystal violet staining based assay; type: functional, organism-based; conditions: dose 10.0 µg/ml
[16] = system: Cell membrane; test: Disruption of cell membrane in methicillin resistant Staphylococcus aureus ATCC 33592 assessed as cell shrinkage at 1 ug/ml incubated for 6 hrs by Scanning electron microscopic analysis; type: cell membranes; conditions: dose 1.0 µg/ml
[17] = system: Bacillus subtilis; test: Antibacterial activity against Bacillus subtilis ATCC6633 assessed as inhibition of bacterial growth incubated for 18 hrs by microdilution broth assay; type: functional
[18] = system: Enterococcus faecalis; test: Antibacterial activity against Enterococcus faecalis ATCC29212 assessed as inhibition of bacterial growth incubated for 18 hrs by microdilution broth assay; type: functional
[19] = system: Staphylococcus epidermidis; test: Antibacterial activity against methicillin resistant Staphylococcus epidermidis clinical isolate 20-1 assessed as inhibition of bacterial growth incubated for 7 days by alamar blue assay; type: functional; conditions: clinical isolate 20-1, 168 h, time 7 day
[20] = Free AUC in BALB/c mouse at 10 mg/kg,po administration measured upto 24 hrs by LC-MS/MS analysis; type: ADME, organism-based; conditions: in vivo
[21] = system: Staphylococcus aureus; test: as §1, with “pigment deposition” for “congestion”; type: functional, organism-based
[22] = system: Cell membrane; test: Disruption of cell membrane in methicillin resistant Staphylococcus aureus ATCC 33592 assessed as cell surface perforation at 1 ug/ml incubated for 6 hrs by Scanning electron microscopic analysis; type: cell membranes; conditions: dose 1.0 µg/ml
[23] = system: Staphylococcus aureus; test: Antibacterial activity against Linezolid resistant Staphylococcus aureus clinical isolate 20-1 assessed as inhibition of bacterial growth incubated for 7 days by alamar blue assay; type: functional; conditions: clinical isolate 20-1, 168 h, time 7 day
[24] = system: Staphylococcus epidermidis; test: Antibacterial activity against methicillin resistant Staphylococcus epidermidis clinical isolate 20-2 assessed as inhibition of bacterial growth incubated for 7 days by alamar blue assay; type: functional; conditions: clinical isolate 20-2, 168 h, time 7 day
[25] = system: Enterococcus; test: Antibacterial activity against vancomycin resistant Enterococcus clinical isolate 20-1 assessed as inhibition of bacterial growth incubated for 7 days by alamar blue assay; type: functional; conditions: clinical isolate 20-1, 168 h, time 7 day
[26] = system: Mycobacterium tuberculosis; test: Antibacterial activity against Mycobacterium tuberculosis H37Rv assessed as inhibition of bacterial growth incubated for 7 days by alamar blue assay; type: functional; conditions: 168 h, time 7 day
[27] = system: Staphylococcus aureus; test: Antibacterial activity against methicillin resistant Staphylococcus aureus clinical isolate 20-1 assessed as inhibition of bacterial growth incubated for 7 days by alamar blue assay; type: functional; conditions: clinical isolate 20-1, 168 h, time 7 day

CC(=O)NC[C@H]1CN(c2ccc(N3CCOCC3)c(F)c2)C(=O)O1 [LINEZOLID]
Activity [1]: Active | Activity [2]: Active | inhibition [3]: Active | IC50 at 48 h [4]: > 64 µg/mL | Activity [5]: Active | Activity [6]: Active | Activity [7]: Active | MIC [8]: 2 µg/mL (≈ 5.93 µM) | MIC [9]: 1 µg/mL (≈ 2.96 µM) | Activity [10]: Active | MIC [11]: 8 µg/mL (≈ 23.7 µM) | MIC [12]: 8 µg/mL (≈ 23.7 µM) | MIC [13]: 1 µg/mL (≈ 2.96 µM) | IC50 [14]: 1.1 µg/mL (≈ 3.26 µM) | inhibition [15]: Active | Activity [16]: Active | MIC [17]: > 64 µg/mL | MIC [18]: 0.5 µg/mL (≈ 1.48 µM) | MIC [19]: 0.5 µg/mL (≈ 1.48 µM) | fAUC [20]: 5260 ng·h/mL | Activity [21]: Active | Activity [22]: Active | MIC [23]: 8 µg/mL (≈ 23.7 µM) | MIC [24]: 0.5 µg/mL (≈ 1.48 µM) | MIC [25]: 2 µg/mL (≈ 5.93 µM) | MIC [26]: 0.8 µg/mL (≈ 2.37 µM) | MIC [27]: 1 µg/mL (≈ 2.96 µM)
